The results in this text go back to patent publication US20220323594A1, “LIPIDATED CATIONIC PEPTIDE-PEG COMPOSITIONS FOR NUCLEIC ACID DELIVERY” (NUTCRACKER THERAPEUTICS, INC., priority 2019, published 2022).

As a reminder, the viability is a read-out of living cells in per cent, often relative to untreated cells.

Bounds are passed on as bounds.

This data set is described as follows: MTT viability assay after treatment with Fluc mRNA/amino lipidated peptoid formulations. The format is cell-based. The conditions noted are these: human, HeLa cells. On the procedure:
Cellular viability was measured following treatment with Fluc mRNA/amino lipidated peptoid formulations by a traditional MTT viability assay. […] In this assay, cells were first treated with peptoid formulations at a final mRNA concentration of 100 ng/well for 8 hours. Cells were then left to grow for 48 hours, after which time they were exposed to 1.5 mg/mL 3-(4,5-dimethylthiazol-2-yl)-2,5-diphenyltetrazolium bromide (MTT) for 2 hours, then lysed using a solubilizing solution of 10% Triton-X 100 in acidic isopropanol (0.1N HCl). The signal corresponding to reduced formazan was normalized to untreated cells to provide a relative viability of each treated condition. […] In general, nearly all conditions maintained at least 80% viability with the only exceptions being formulations of compound 5, 34, and 35.
For orientation: Formazan colour is commonly taken as a measure of viable cells.

Consider `CCCCCCCCCCN(CC(N)=O)C(=O)CN(CCCCCCCCCC)C(=O)CN(CCCCCCCCCC)C(=O)CN(CCCCCCCCCC)C(=O)CN(CCc1ccccc1)C(=O)CN(CCc1ccccc1)C(=O)CN(CCCN)C(=O)CN(CCc1ccccc1)C(=O)CN(CCc1ccccc1)C(=O)CN(CCCN)C(=O)CN(CCc1ccccc1)C(=O)CN(CCc1ccccc1)C(=O)CN(CCCN)C(=O)CN(CCc1ccccc1)C(=O)CN(CCc1ccccc1)C(=O)CNCCCN` [Compound 29], for which the viability at 8 h, 500 ng/well by setting is: (Relative Viability (%) 2% PEG) 94%; (Relative Viability (%) No PEG) 85.9%.

Take `CCCCCCCCCCN(CC(N)=O)C(=O)CN(CCCCCCCCCC)C(=O)CN(CCCCCCCCCC)C(=O)CN(CCCCCCCCCC)C(=O)CN(CCc1ccccc1)C(=O)CN(CCc1ccccc1)C(=O)CN(CCN)C(=O)CN(CCc1ccccc1)C(=O)CN(CCc1ccccc1)C(=O)CN(CCN)C(=O)CN(CCc1ccccc1)C(=O)CN(CCc1ccccc1)C(=O)CNCCN` [Compound 8]: the viability at 8 h, 500 ng/well runs as follows: (Relative Viability (%) 2% PEG) 97.3%; (Relative Viability (%) No PEG) 92%.

In the case of `CCCCCCCCCCN(CC(N)=O)C(=O)CN(CCCCCCCCCC)C(=O)CN(CCc1ccccc1)C(=O)CN(CCc1ccccc1)C(=O)CN(CCN)C(=O)CN(CCc1ccccc1)C(=O)CN(CCc1ccccc1)C(=O)CN(CCN)C(=O)CN(CCc1ccccc1)C(=O)CN(CCc1ccccc1)C(=O)CN(CCN)C(=O)CN(CCc1ccccc1)C(=O)CN(CCc1ccccc1)C(=O)CN(CCN)C(=O)CN(CCc1ccccc1)C(=O)CN(CCc1ccccc1)C(=O)CNCCN` [Compound 12], the viability at 8 h, 500 ng/well is, setting by setting: (Relative Viability (%) 2% PEG) 104%; (Relative Viability (%) No PEG) 98.5%.

Regarding `CCCCCCCCCCN(CC(N)=O)C(=O)CN(CCCCCCCCCC)C(=O)CN(CCCCCCCCCC)C(=O)CN(CCCCCCCCCC)C(=O)CN(CCCCCCCCCC)C(=O)CN(CCc1ccccc1)C(=O)CN(CCc1ccccc1)C(=O)CN(CCN)C(=O)CN(CCc1ccccc1)C(=O)CN(CCc1ccccc1)C(=O)CN(CCN)C(=O)CN(CCc1ccccc1)C(=O)CN(CCc1ccccc1)C(=O)CN(CCN)C(=O)CN(CCc1ccccc1)C(=O)CN(CCc1ccccc1)C(=O)CNCCN` [Compound 21], the viability at 8 h, 500 ng/well worked out at 109% (Relative Viability (%) 2% PEG) and 91.3% (Relative Viability (%) No PEG).

For the molecule `CCCCCCCCCCN(CC(N)=O)C(=O)CN(CCCCCCCCCC)C(=O)CN(CCCCCCCCCC)C(=O)CN(CCCCCCCCCC)C(=O)CN(CCc1ccccc1)C(=O)CN(CCc1ccccc1)C(=O)CN(CC1CCCN1)C(=O)CN(CCc1ccccc1)C(=O)CN(CCc1ccccc1)C(=O)CN(CC1CCCN1)C(=O)CN(CCc1ccccc1)C(=O)CN(CCc1ccccc1)C(=O)CN(CC1CCCN1)C(=O)CN(CCc1ccccc1)C(=O)CN(CCc1ccccc1)C(=O)CNCC1CCCN1` (stereo not drawn) [Compound 35], the viability at 8 h, 500 ng/well (Relative Viability (%) 2% PEG) was found to be 105%; the viability at 8 h, 500 ng/well (Relative Viability (%) No PEG) was determined as 74.8%; the viability at 8 h, 500 ng/well (viability) is less than 80%.

On to `CCCCCCCCCCN(CC(=O)N(CC(=O)N(CCCCCCCCCC)CC(=O)N(CC(N)=O)CC(CC)CCCC)CC(CC)CCCC)C(=O)CN(CCc1ccccc1)C(=O)CN(CCc1ccccc1)C(=O)CN(CCN)C(=O)CN(CCc1ccccc1)C(=O)CN(CCc1ccccc1)C(=O)CN(CCN)C(=O)CN(CCc1ccccc1)C(=O)CN(CCc1ccccc1)C(=O)CNCCN` (stereo not drawn) [Compound 24], for which the viability at 8 h, 500 ng/well is, setting by setting: (Relative Viability (%) 2% PEG) 112%; (Relative Viability (%) No PEG) 92%.

For `CCCCCCCCCCN(CC(N)=O)C(=O)CN(CCCCCCCCCC)C(=O)CN(CCCCCCCCCC)C(=O)CN(CCCCCCCCCC)C(=O)CN(CCCCCCCCCC)C(=O)CN(CCc1ccccc1)C(=O)CN(CCc1ccccc1)C(=O)CN(CCN)C(=O)CN(CCc1ccccc1)C(=O)CN(CCc1ccccc1)C(=O)CN(CCN)C(=O)CN(CCc1ccccc1)C(=O)CN(CCc1ccccc1)C(=O)CNCCN` [Compound 19], the viability at 8 h, 500 ng/well was determined as 94.8% (Relative Viability (%) 2% PEG) and 87.1% (Relative Viability (%) No PEG).

With `CCCCCCCCCCN(CC(N)=O)C(=O)CN(CCCCCCCCCC)C(=O)CN(CCCCCCCCCC)C(=O)CN(CCCCCCCCCC)C(=O)CN(CCc1ccccc1)C(=O)CN(CCc1ccccc1)C(=O)CN(CC1CCCN1)C(=O)CN(CCc1ccccc1)C(=O)CN(CCc1ccccc1)C(=O)CN(CC1CCCN1)C(=O)CN(CCc1ccccc1)C(=O)CN(CCc1ccccc1)C(=O)CNCC1CCCN1` (stereo not drawn) [Compound 34], the viability at 8 h, 500 ng/well is, setting by setting: (Relative Viability (%) 2% PEG) 106%; (Relative Viability (%) No PEG) 67.6%; (viability) less than 80%.
